We go through 63 compounds from patent publication US11649236B2, “Polycyclic carbamoylpyridone derivative” (Shionogi & Co., Ltd., priority 2018, dated 2023).

The assay relates to HIV. Description: Anti-HIV activity (MT-4 cells, MTT). It counts as cell-based. Particulars: Human immunodeficiency virus 1, MT4, 96 h, cultured 4 days. How it is done: Serial dilutions of a test sample were prepared in a 96-well microplate (50 μL/well). 2.5×10^5 cells/mL of a MT-4 cell suspension was dispensed at 100 μL/well to the plate containing the test sample. Then, an HIV virus solution was dispensed at 50 μL/well. The plate was mixed with a plate mixer and cultured for 4 days in a CO2 incubator. An MTT (3-(4,5-dimethylthiazol-2-yl)-2,5-diphenyltetrazolium bromide) solution was dispensed at 30 μL/well. The plate was reacted for 1 hour in a CO2 incubator. 150 μL of the supernatant was removed from each well so as not to take up the cells. 150 μL of a cell lysis solution was added to each well and well mixed with a plate mixer until the cells were completely lysed. The absorbance of the mixed plate was measured at two wavelengths of 560 nm and 690 nm with a microplate reader.

Compound `CCN1C(=O)c2c(O)c(=O)c(C(=O)NCc3ccc(Br)cc3F)cn2N2CCCC[C@@H]12` [Compound I-014] came in with an EC50 of 10 nM.

The compound `CN1C(=O)c2c(O)c(=O)c(C(=O)NCc3ccc(F)cc3F)cn2N2Cc3ccccc3[C@@H]12` [II-116] had an EC50 of 0.68 nM.

`CCN1C(=O)c2c(O)c(=O)c(C(=O)NCc3ccc(F)cc3F)cn2N2C[C@H](OC)CC[C@@H]12` [II-059] displayed an EC50 of 0.66 nM.

As for `CCN1C(=O)c2c(O)c(=O)c(C(=O)NCc3ccc(F)cc3F)cn2N2CCC(C)(C)C[C@@H]12` [II-039], the EC50 amounted to 2.9 nM. This EC50 lies about 4.4-fold higher than the previous one.

Regarding `O=C(NCc1ccc(F)cc1F)c1cn2c(c(O)c1=O)C(=O)N(C[C@@H]1CCCO1)[C@@H]1CCCCN12` [Compound I-023], the EC50 turned out to be 0.62 nM.

For `CCN1C(=O)c2c(O)c(=O)c(C(=O)NCc3c(F)cc(F)cc3F)cn2N2Cc3ccccc3[C@@H]12` [II-097], the EC50 turned out to be 1 nM.

In turn, `CCN1C(=O)c2c(O)c(=O)c(C(=O)NCc3ccc(F)c(Cl)c3)cn2N2CCCC[C@@H]12` [Compound I-034] came in with an EC50 of 1.3 nM.

As for `CN1C(=O)c2c(O)c(=O)c(C(=O)NCc3c(F)cc(F)cc3F)cn2N2C[C@H]3C[C@H](C3)[C@@H]12` [II-158], a half-maximal effect (EC50) was put at 0.27 nM.

Regarding `CCCN1C(=O)c2c(O)c(=O)c(C(=O)NCc3ccc(F)cc3F)cn2N2CCCC[C@@H]12` [Compound I-021], the EC50 is 1.1 nM.

For the compound `COC[C@@H](C)N1C(=O)c2c(O)c(=O)c(C(=O)NCc3ccc(F)cc3F)cn2N2CCCC[C@@H]12` [Compound I-040], the EC50 worked out at 0.7 nM.

The compound `CCN1C(=O)c2c(O)c(=O)c(C(=O)NCc3ccc(F)cc3F)cn2N2CC[C@H](C(F)(F)F)C[C@@H]12` [II-114] gave an EC50 of 1.5 nM. This EC50 is about 2.1-fold higher than that of the compound before.

`CCN1C(=O)c2c(O)c(=O)c(C(=O)NCc3c(Cl)ccc(Cl)c3F)cn2N2CCCC[C@@H]12` [Compound I-049] registered an EC50 of 2.3 nM.

`COC[C@@H](C)N1C(=O)c2c(O)c(=O)c(C(=O)NCc3cccc(Cl)c3F)cn2N2CC[C@H](C)C[C@@H]12` [II-002]: the EC50 was found to be 0.77 nM. Compared with the last compound, the EC50 is about 3-fold lower.

`CCN1C(=O)c2c(O)c(=O)c(C(=O)NCc3ccc(F)cc3F)cn2N2CCC3(CCC3)C[C@@H]12` [II-017] yielded an EC50 of 1.6 nM. Against the preceding compound, the EC50 is about 2.1-fold higher.

As to `COCCCN1C(=O)c2c(O)c(=O)c(C(=O)NCc3ccc(F)cc3F)cn2N2CCCC[C@@H]12` [Compound I-024], the EC50 is 2.9 nM.

The compound `CCN1C(=O)c2c(O)c(=O)c(C(=O)NCc3ccc(F)cc3F)cn2N2Cc3ccc(F)cc3[C@@H]12` [II-079] yielded an EC50 of 0.66 nM.

Turning to `O=C(NCc1ccc(F)cc1F)c1cn2c(c(O)c1=O)C(=O)N(CCF)[C@@H]1CCCCN12` [Compound I-045], the EC50 was 0.73 nM.

For `CN1C(=O)c2c(O)c(=O)c(C(=O)NCc3c(F)cc(F)cc3F)cn2N2C[C@@H]3CC[C@@H](O3)[C@@H]12` [II-115], the EC50 was found to be 0.87 nM. The EC50 values of the last two compounds are within 1.5-fold of each other.

As for `CCN1C(=O)c2c(O)c(=O)c(C(=O)NCc3ccc(F)cc3F)cn2N2CCN(c3ccccc3)C[C@@H]12` [II-143], the midpoint of the response, the EC50, lay at 3.2 nM.

`CCN1C(=O)c2c(O)c(=O)c(C(=O)NCc3c(F)ccc(F)c3F)cn2N2CCCC[C@@H]12` [II-080] had a concentration giving a half-maximal response (EC50) of 0.58 nM.

As for `CCN1C(=O)c2c(O)c(=O)c(C(=O)NCc3ccc(F)cc3F)cn2N2CCC[C@@]12C` [Compound I-008], the EC50 came to 2 nM. Against the preceding compound, the EC50 is about 3.4-fold higher.

Take `Cc1c(F)ccc(CNC(=O)c2cn3c(c(O)c2=O)C(=O)N(C)[C@@H]2CCCCN23)c1F` [II-054]: the EC50 was determined as 0.34 nM. This EC50 is about 5.9-fold lower than that of the compound before.

The compound `CN1C(=O)c2c(O)c(=O)c(C(=O)NCc3cccc(Cl)c3F)cn2N2Cc3ccccc3[C@@H]12` [II-063] showed an EC50 of 3.6 nM.

In the case of `C[C@@H]1CCC[C@H]2N(C)C(=O)c3c(O)c(=O)c(C(=O)NCc4cccc(Cl)c4F)cn3N12` [II-014], the EC50 was 0.55 nM.

The compound `CCN1C(=O)c2c(O)c(=O)c(C(=O)NCc3ccc(F)cc3F)cn2N2[C@H](COC)CCC[C@@H]12` [II-150] gave an EC50 of 0.55 nM. In other words, the sub-nanomolar range.

The compound `CCN1C(=O)c2c(O)c(=O)c(C(=O)NCc3ccccc3OC(F)F)cn2N2CCCC[C@@H]12` [II-127] gave an EC50 of 3.6 nM. Against the preceding compound, the EC50 is about 6.5-fold higher.

For the compound `C[C@H]1CCN2[C@@H](C1)N(C)C(=O)c1c(O)c(=O)c(C(=O)NCc3ccc(F)cc3F)cn12` [II-113], a half-maximal response (EC50) required 0.72 nM.

For the compound `CCN1C(=O)c2c(O)c(=O)c(C(=O)N[C@H](C)c3cccc(Cl)c3F)cn2N2CCCC[C@@H]12` [II-012], the EC50 amounted to 3.6 nM. Compared with the last compound, the EC50 is about 5-fold higher.

As for `CCN1C(=O)c2c(O)c(=O)c(C(=O)NCc3ccc(F)cc3F)cn2N2C3CCC(CC3)[C@@H]12` [II-118], a half-maximal effect (EC50) was put at 2.2 nM.

In turn, `O=C(NCc1ccc(F)cc1F)c1cn2c(c(O)c1=O)C(=O)N(C1CC1)[C@@H]1CCCCN12` [Compound I-031] came in with an EC50 of 0.69 nM.

`C[C@@H](N1C(=O)c2c(O)c(=O)c(C(=O)NCc3ccc(F)cc3F)cn2N2CCCC[C@@H]12)C(F)(F)F` [Compound I-041] gave an EC50 of 0.66 nM.

Regarding `C[C@@H]1CCC[C@H]2N(C)C(=O)c3c(O)c(=O)c(C(=O)NCc4ccc(Cl)cc4F)cn3N12` [II-091], the EC50 is 4.1 nM.

For the compound `COC[C@@H](C)N1C(=O)c2c(O)c(=O)c(C(=O)NCc3cccc(Cl)c3F)cn2N2CCCC[C@@H]12` [II-006], a half-maximal response (EC50) required 0.58 nM.

`C[C@@H]1CCN2[C@@H](C1)N(C)C(=O)c1c(O)c(=O)c(C(=O)NCc3c(F)cc(F)cc3F)cn12` [II-130] displayed an EC50 of 0.13 nM.

As for `CCN1C(=O)c2c(O)c(=O)c(C(=O)NCc3c(F)ccc(C#N)c3F)cn2N2CCCC[C@@H]12` [II-050], the EC50 was determined as 2.8 nM.

On to `COCCN1C(=O)c2c(O)c(=O)c(C(=O)NCc3ccc(F)cc3F)cn2N2CCCC[C@@H]12` [Compound I-016], for which the midpoint of the response, the EC50, lay at 1.4 nM. Compared with the last compound, the EC50 is about 2-fold lower.

`CCN1C(=O)c2c(O)c(=O)c(C(=O)NCc3ccccc3OC)cn2N2CCCC[C@@H]12` [II-129] displayed an EC50 of 1.9 nM.

Compound `CCN1C(=O)c2c(O)c(=O)c(C(=O)NCc3ccc(F)cc3F)cn2N2CCCCC[C@@H]12` [Compound I-032] had an EC50 of 1.2 nM. Against the preceding compound, the EC50 is about 1.6-fold lower.

With `COC[C@H](C)N1C(=O)c2c(O)c(=O)c(C(=O)NCc3ccc(F)cc3F)cn2N2CCCC[C@@H]12` [Compound I-039], it took 4.4 nM to reach a half-maximal effect (EC50).

For `CCN1C(=O)c2c(O)c(=O)c(C(=O)NCc3ccc(F)cc3F)cn2N2CC[C@H](COC)C[C@@H]12` [II-055], the EC50 is 0.58 nM.

With `CCN1C(=O)c2c(O)c(=O)c(C(=O)NCc3c(F)cc(F)cc3F)cn2N2CC[C@H](C)C[C@@H]12` [II-069], the EC50 amounted to 0.9 nM. This EC50 lies about 1.6-fold higher than the previous one.

For the compound `O=C(NCc1ccc(F)cc1F)c1cn2c(c(O)c1=O)C(=O)N(Cc1ccc(F)cc1F)[C@@H]1CCCCN12` [Compound I-043], the EC50 was found to be 3.5 nM.

In turn, `CCN1C(=O)c2c(O)c(=O)c(C(=O)NCc3ccc(F)cc3F)cn2N2CC=C[C@@H]12` [II-109] returned an EC50 of 2.4 nM.

With `CCN1C(=O)c2c(O)c(=O)c(C(=O)NCc3ccc(F)cc3F)cn2N2CCCC(C)(C)[C@@H]12` [Compound I-020], the response was half-maximal at 1.3 nM (EC50). Against the preceding compound, the EC50 is about 1.8-fold lower.

Turning to `CCN1C(=O)c2c(O)c(=O)c(C(=O)NCc3ccc(F)cc3F)cn2N2C[C@H](C)CC[C@@H]12` [II-052], the EC50 stood at 0.62 nM.

Turning to `CCN1C(=O)c2c(O)c(=O)c(C(=O)NCc3ccccc3F)cn2N2CCCC[C@@H]12` [II-092], the EC50 worked out at 0.33 nM.

In the case of `C[C@H]1CC[C@H]2N(C)C(=O)c3c(O)c(=O)c(C(=O)NCc4ccc(F)cc4F)cn3N2C1` [II-117], the midpoint of the response, the EC50, lay at 2 nM.

`CN1C(=O)c2c(O)c(=O)c(C(=O)NCc3ccc(F)cc3F)cn2N2C[C@@H]3CC[C@@H](C3)[C@@H]12` [II-122] displayed an EC50 of 0.61 nM.

Consider `O=C(NCc1ccc(F)cc1F)c1cn2c(c(O)c1=O)C(=O)N(C1CCC(F)(F)CC1)[C@@H]1CCCCN12` [Compound I-052], for which the EC50 was determined as 5.5 nM.

On to `CCN1C(=O)c2c(O)c(=O)c(C(=O)NCc3ncc(F)cc3Cl)cn2N2CCCC[C@@H]12` [II-095], for which a half-maximal response (EC50) required 1.9 nM.

For the compound `CCN1C(=O)c2c(O)c(=O)c(C(=O)NCc3ccc(F)cc3F)cn2N2CCN(C)C[C@@H]12` [Compound I-013], the response was half-maximal at 5.6 nM (EC50).

Compound `CCN1C(=O)c2c(O)c(=O)c(C(=O)NCc3ccc(F)c(Cl)c3F)cn2N2CCOC[C@@H]12` [Compound I-004] had an EC50 of 0.56 nM.

As for `CCN1C(=O)c2c(O)c(=O)c(C(=O)NCc3c(F)cccc3F)cn2N2CCCC[C@@H]12` [II-082], the concentration giving a half-maximal response (EC50) stood at 0.74 nM.

In turn, `C[C@@H]1CCC[C@H]2N(C)C(=O)c3c(O)c(=O)c(C(=O)NCc4c(F)cc(F)cc4F)cn3N12` [II-094] gave an EC50 of 0.57 nM.

`O=C(NCc1ccc(F)cc1F)c1cn2c(c(O)c1=O)C(=O)N(CCCF)[C@@H]1CCCCN12` [Compound I-047] returned an EC50 of 1.5 nM.

In the case of `CCN1C(=O)c2c(O)c(=O)c(C(=O)NCc3ccc(F)cc3F)cn2N2CCCC[C@@]12CC` [II-159], the EC50 was found to be 0.56 nM.

On to `CCN1C(=O)c2c(O)c(=O)c(C(=O)NCc3nn(C)cc3Cl)cn2N2CCCC[C@@H]12` [II-135], for which it took 18 nM to reach a half-maximal effect (EC50). This EC50 is about 32-fold higher than that of the compound before.

`CCN1C(=O)c2c(O)c(=O)c(C(=O)NCc3ccc(F)cc3F)cn2N2CC[C@@H](C(F)(F)F)C[C@@H]12` [II-132]: the EC50 was 0.51 nM.

Take `C[C@@H]1CCN2[C@@H](C1)N(C)C(=O)c1c(O)c(=O)c(C(=O)NCc3ccc(Cl)cc3F)cn12` [II-075]: the EC50 came out at 6.3 nM.

`CCN1C(=O)c2c(O)c(=O)c(C(=O)NCc3ccc(F)cc3F)cn2N2[C@H]3CCC[C@H]3CC[C@@H]12` [II-030] yielded an EC50 of 0.86 nM.

In turn, `CC[C@@H]1CC[C@H]2N(CC)C(=O)c3c(O)c(=O)c(C(=O)NCc4ccc(F)cc4F)cn3N12` [II-089] returned an EC50 of 0.94 nM.

In the case of `CCN1C(=O)c2c(O)c(=O)c(C(=O)NCc3ccc(F)nc3F)cn2N2CC[C@H](C)C[C@@H]12` [II-081], the EC50 came out at 3.1 nM.

`CCN1C(=O)c2c(O)c(=O)c(C(=O)NCc3c(F)cc(F)cc3F)cn2N2CC[C@@H](C)C[C@@H]12` [II-044] showed an EC50 of 0.84 nM.

The EC50 is the concentration that produces a half-maximal response.
